# “And” between values parts separate entries of the source, which are not always exact repeats. Equal entries are not always repeated. “Also recorded” adds a separate entry of the source.
# Tests used:
# [1] = target: T1, Kir2.1 (Mus musculus, UniProt P35561); test: whole cell
# T1 sequence (P35561 1-428): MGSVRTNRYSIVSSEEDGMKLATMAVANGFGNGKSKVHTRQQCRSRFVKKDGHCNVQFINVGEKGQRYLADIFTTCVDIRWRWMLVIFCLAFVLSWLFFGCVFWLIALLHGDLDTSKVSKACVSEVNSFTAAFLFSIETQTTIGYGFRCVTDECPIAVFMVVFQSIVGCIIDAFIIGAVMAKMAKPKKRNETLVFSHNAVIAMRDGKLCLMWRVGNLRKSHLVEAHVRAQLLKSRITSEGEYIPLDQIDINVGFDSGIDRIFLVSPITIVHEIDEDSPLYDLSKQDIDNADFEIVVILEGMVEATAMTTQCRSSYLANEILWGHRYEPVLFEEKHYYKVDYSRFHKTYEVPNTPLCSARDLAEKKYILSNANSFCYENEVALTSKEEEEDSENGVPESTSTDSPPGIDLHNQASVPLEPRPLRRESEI
# [2] = target: N-type calcium channels (Rattus norvegicus, UniProt Q02294); test: Ricerca Lead Profiling Screen radioligand binding
# [3] = system: L-type calcium channels; test: Ricerca Lead Profiling Screen radioligand binding
# [4] = target: Kir1.1 N171D (Rattus norvegicus, UniProt P35560, N171D); test: patch clamp, Kir1.1 N171D mutant
# [5] = Ricerca Lead Profiling Screen, 68 radioligand binding assays; conditions: GPCRs, ion channels and transporters
# [6] = target: 1A2 (Homo sapiens, UniProt P05177)
# [7] = intrinsic clearance, rat
# [8] = target: T2, C25 chimera (Mus musculus, UniProt P35561, A121P/A131S/A173S/C101L/C149F/C169V/C89I/D114R/D152E/D172N/DEL116-120/E125N/E153Q/F103W/F129M/F98L/G111K/I106V/I137L/I156T/I175M/I176C/I87V/INS113PEFYPPDN/L105V/L108Y/L109V/L90T/L94G/L97F/M160L/M180L/P155A/S124E/S128G/T141V/V102L/V126I/V158I/V161L/V162I/V167L/V179I/V86T/V93L/W104Y); test: patch clamp, C25 chimera; format: cell-based, mouse/rat; conditions: for inhibition of C25 current: pH 7.4
# T2 sequence (P35561 with tags, fused parts or gaps V86T/I87V/C89I/L90T/V93L/L94G/L97F/F98L/C101L/V102L/F103W/W104Y/L105V/I106V/L108Y/L109V/G111K/INS113PEFYPPDN/D114R/DEL116-120/A121P/S124E/E125N/V126I/S128G/F129M/A131S/I137L/T141V/C149F/D152E/E153Q/P155A/I156T/V158I/M160L/V161L/V162I/V167L/C169V/D172N/A173S/I175M/I176C/V179I/M180L): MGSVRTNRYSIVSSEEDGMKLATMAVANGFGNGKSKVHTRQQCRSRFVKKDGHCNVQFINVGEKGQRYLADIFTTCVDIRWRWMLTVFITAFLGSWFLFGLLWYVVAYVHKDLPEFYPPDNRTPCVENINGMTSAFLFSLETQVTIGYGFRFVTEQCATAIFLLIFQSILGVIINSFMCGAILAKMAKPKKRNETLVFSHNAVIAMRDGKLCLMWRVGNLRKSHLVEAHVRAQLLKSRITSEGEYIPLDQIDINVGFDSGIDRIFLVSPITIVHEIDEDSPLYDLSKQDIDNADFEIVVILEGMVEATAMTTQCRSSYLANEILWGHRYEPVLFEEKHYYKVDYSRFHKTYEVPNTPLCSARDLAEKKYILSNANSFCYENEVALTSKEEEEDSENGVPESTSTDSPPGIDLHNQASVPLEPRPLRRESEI
# [9] = target: hKir2.6 (Homo sapiens, UniProt B7U540); test: whole cell patch clamp, Kir2.6
# [10] = target: C25 N172D (Mus musculus, UniProt P35561, A121P/A131S/A173S/C101L/C149F/C169V/C89I/D114R/D152E/DEL116-120/E125N/E153Q/F103W/F129M/F98L/G111K/I106V/I137L/I156T/I175M/I176C/I87V/INS113PEFYPPDN/L105V/L108Y/L109V/L90T/L94G/L97F/M160L/M180L/P155A/S124E/S128G/T141V/V102L/V126I/V158I/V161L/V162I/V167L/V179I/V86T/V93L/W104Y); test: patch clamp, C25 N172D mutant; conditions: pH 7.4
# [11] = target: T1, Kir2.1; test: inside-out patch, compound applied from intracellular side; format: cell-based; conditions: IC50 Kir2.1, inside-out patch, pH 6.5, applied from intracellular side
# [12] = target: Kir2.1 D172N (Mus musculus, UniProt P35561, D172N); test: patch clamp, Kir2.1 D172N mutant
# [13] = target: 2C9 (Homo sapiens, UniProt P11712); test: CYP450 inhibition assay
# [14] = intrinsic clearance, human
# [15] = protein binding, human
# [16] = protein binding, rat
# [17] = target: Kir2.1 D172N/I176C (Mus musculus, UniProt P35561, D172N/I176C); test: patch clamp, Kir2.1 D172N/I176C mutant
# [18] = target: rKir4.1 (Rattus norvegicus, UniProt P49655); test: whole cell patch clamp, Kir4.1
# [19] = target: C25 N172D/M175I/C176I (Mus musculus, UniProt P35561, A121P/A131S/A173S/C101L/C149F/C169V/C89I/D114R/D152E/DEL116-120/E125N/E153Q/F103W/F129M/F98L/G111K/I106V/I137L/I156T/I87V/INS113PEFYPPDN/L105V/L108Y/L109V/L90T/L94G/L97F/M160L/M180L/P155A/S124E/S128G/T141V/V102L/V126I/V158I/V161L/V162I/V167L/V179I/V86T/V93L/W104Y); test: patch clamp, C25 N172D/M175I/C176I mutant
# [20] = target: T3, Kir1.1 (Rattus norvegicus, UniProt P35560); test: whole cell patch clamp, Kir1.1; format: cell-based
# T3 sequence (P35560 1-391): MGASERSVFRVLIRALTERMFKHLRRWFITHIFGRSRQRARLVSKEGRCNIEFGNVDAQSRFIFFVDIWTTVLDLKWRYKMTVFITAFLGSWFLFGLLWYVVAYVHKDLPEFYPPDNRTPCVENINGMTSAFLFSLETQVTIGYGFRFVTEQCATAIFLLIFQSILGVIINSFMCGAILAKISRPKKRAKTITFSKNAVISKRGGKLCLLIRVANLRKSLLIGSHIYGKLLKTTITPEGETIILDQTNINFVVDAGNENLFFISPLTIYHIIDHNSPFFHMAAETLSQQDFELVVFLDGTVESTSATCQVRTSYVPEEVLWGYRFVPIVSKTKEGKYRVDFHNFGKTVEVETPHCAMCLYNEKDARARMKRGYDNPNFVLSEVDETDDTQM
# [21] = target: 3A4 (Homo sapiens, UniProt P08684); test: CYP450 inhibition assay
# [22] = target: Kir1.1 N171D/C175I (Rattus norvegicus, UniProt P35560, C175I/N171D); test: patch clamp, Kir1.1 N171D/C175I mutant
# [23] = target: hKir7.1 (Homo sapiens, UniProt O60928); test: whole cell patch clamp, Kir7.1; conditions: IC50 Kir7.1, pH 7.4
# [24] = PubChem database; cited from earlier work
# [25] = target: hERG (Homo sapiens, UniProt Q12809); test: Ricerca Lead Profiling Screen radioligand binding
# [26] = target: hKir2.3 (Homo sapiens, UniProt P48050); test: whole cell patch clamp, Kir2.3
# [27] = target: 2D6 (Homo sapiens, UniProt P10635)
# [28] = system: KATP channel; conditions: read-out: KATP channel IC50; cited from earlier work
# [29] = read-out: IC50 Kir2.1, pH 8.5, manual patch clamp
# [30] = pH 7.4, read-out: inhibition of C25 current
# Sequence of hKir7.1 (O60928 whole entry): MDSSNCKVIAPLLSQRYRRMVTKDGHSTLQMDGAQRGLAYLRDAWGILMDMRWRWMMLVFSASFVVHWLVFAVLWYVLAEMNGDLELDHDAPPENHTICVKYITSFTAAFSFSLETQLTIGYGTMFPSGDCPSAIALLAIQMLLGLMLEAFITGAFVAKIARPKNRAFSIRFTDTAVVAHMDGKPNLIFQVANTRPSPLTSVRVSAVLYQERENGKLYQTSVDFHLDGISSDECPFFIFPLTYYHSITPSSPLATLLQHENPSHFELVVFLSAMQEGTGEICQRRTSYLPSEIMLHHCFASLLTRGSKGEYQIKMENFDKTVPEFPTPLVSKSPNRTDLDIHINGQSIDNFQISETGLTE
# Sequence of Kir1.1 N171D/C175I (P35560 whole entry N171D/C175I): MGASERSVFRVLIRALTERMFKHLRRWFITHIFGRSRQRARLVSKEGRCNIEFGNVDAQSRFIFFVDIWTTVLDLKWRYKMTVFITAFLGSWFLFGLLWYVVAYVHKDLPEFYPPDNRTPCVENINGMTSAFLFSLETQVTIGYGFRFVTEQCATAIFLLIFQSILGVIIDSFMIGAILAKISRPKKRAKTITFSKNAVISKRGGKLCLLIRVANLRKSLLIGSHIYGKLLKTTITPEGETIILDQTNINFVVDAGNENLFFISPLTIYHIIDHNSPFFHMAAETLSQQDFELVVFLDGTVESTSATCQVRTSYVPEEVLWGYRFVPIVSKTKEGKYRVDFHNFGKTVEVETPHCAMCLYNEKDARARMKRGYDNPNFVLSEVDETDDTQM
# Sequence of Kir1.1 N171D (P35560 whole entry N171D): as the sequence (P35560 whole entry N171D/C175I) above, with I175C counted along it
# Sequence of 1A2 (P05177 whole entry): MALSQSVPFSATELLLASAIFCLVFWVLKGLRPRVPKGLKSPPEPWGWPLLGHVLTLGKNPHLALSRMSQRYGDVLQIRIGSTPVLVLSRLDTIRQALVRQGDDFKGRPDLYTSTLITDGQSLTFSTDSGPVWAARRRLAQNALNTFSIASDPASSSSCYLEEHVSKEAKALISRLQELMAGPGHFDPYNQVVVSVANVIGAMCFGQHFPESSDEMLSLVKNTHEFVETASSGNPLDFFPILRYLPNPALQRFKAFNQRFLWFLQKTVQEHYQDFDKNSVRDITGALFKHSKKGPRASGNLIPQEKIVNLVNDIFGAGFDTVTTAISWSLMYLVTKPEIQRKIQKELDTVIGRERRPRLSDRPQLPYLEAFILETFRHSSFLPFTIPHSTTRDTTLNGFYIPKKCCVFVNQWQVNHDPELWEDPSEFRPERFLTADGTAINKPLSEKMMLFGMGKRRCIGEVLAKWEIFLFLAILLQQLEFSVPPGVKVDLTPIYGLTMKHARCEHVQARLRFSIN
# Sequence of hERG (Q12809 whole entry): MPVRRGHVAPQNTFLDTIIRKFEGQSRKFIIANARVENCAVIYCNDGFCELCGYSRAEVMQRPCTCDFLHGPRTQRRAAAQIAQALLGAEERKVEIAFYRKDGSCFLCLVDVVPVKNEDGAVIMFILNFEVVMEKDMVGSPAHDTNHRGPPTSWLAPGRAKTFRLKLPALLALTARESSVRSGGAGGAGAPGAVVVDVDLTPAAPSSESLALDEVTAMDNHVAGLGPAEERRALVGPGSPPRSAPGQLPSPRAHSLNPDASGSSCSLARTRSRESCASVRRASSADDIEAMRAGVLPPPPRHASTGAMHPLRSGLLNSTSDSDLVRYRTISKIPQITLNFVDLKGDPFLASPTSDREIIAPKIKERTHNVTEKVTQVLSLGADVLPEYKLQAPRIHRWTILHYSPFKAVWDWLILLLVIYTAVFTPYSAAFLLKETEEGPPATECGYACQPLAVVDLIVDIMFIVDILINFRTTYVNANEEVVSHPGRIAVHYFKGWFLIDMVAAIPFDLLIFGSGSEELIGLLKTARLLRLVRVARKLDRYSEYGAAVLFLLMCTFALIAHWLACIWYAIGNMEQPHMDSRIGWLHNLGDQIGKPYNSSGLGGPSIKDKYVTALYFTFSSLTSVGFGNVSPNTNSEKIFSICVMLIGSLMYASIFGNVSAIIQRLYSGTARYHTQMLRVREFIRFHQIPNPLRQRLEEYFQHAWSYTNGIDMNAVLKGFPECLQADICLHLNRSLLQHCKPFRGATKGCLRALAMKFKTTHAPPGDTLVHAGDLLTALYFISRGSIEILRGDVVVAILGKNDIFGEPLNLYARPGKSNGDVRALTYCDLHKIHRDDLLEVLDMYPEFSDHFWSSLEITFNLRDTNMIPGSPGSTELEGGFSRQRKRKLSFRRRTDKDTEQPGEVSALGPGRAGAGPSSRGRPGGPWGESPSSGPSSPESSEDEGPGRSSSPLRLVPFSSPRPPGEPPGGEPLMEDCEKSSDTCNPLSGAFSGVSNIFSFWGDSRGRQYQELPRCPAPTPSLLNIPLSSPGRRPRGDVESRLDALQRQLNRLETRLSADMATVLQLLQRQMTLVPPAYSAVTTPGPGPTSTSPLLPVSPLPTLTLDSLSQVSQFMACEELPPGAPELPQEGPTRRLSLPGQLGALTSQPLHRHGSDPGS
# Sequence of 2C9 (P11712 whole entry): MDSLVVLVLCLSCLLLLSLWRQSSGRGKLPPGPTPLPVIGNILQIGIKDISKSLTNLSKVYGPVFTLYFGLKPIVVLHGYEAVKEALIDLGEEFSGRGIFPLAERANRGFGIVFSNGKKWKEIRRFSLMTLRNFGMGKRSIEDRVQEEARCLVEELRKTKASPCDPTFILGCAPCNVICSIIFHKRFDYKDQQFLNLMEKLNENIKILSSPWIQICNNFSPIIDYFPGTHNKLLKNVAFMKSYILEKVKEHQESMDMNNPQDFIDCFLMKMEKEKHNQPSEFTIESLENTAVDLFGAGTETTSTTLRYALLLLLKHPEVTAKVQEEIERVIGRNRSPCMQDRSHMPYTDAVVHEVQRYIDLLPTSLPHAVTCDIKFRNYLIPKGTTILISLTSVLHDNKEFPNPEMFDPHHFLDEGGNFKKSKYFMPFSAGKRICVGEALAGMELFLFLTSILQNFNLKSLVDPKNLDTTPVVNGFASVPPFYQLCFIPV
# Sequence of 3A4 (P08684 whole entry): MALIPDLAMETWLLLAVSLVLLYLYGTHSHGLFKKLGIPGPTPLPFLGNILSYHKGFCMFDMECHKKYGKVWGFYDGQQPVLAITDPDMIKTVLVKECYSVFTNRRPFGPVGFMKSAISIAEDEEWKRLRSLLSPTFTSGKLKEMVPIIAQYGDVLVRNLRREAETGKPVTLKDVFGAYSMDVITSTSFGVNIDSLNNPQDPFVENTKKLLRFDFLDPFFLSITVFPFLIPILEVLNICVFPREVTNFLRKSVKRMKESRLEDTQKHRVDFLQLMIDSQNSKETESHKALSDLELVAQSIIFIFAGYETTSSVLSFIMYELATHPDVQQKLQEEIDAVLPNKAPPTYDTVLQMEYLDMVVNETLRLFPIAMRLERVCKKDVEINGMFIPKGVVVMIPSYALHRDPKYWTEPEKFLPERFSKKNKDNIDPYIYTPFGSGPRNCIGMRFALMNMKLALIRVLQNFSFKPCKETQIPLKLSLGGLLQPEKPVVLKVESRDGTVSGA
# Sequence of rKir4.1 (P49655 whole entry): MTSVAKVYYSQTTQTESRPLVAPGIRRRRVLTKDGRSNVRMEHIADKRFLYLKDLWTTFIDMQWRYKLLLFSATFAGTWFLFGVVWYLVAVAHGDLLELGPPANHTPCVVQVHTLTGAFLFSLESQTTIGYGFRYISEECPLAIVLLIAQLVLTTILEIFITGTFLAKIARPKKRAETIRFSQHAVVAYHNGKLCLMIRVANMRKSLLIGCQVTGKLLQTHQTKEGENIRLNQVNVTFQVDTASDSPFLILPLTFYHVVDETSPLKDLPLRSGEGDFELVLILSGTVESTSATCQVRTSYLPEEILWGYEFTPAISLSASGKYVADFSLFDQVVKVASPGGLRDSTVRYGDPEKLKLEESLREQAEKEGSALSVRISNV
# Sequence of 2D6 (P10635 whole entry): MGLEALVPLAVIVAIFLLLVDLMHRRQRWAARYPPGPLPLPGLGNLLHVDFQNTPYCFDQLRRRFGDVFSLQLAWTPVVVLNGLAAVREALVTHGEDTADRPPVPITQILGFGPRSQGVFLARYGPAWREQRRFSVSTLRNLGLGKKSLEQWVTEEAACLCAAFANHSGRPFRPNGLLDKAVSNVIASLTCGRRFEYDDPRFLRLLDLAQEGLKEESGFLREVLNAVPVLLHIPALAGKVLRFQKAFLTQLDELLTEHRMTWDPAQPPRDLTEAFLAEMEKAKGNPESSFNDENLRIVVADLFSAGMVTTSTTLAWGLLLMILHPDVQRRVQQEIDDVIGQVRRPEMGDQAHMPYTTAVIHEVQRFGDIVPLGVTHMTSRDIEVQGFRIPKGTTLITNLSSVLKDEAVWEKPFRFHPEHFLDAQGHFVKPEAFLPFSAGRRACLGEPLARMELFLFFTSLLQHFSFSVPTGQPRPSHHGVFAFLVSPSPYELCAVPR
# Sequence of hKir2.6 (B7U540 whole entry): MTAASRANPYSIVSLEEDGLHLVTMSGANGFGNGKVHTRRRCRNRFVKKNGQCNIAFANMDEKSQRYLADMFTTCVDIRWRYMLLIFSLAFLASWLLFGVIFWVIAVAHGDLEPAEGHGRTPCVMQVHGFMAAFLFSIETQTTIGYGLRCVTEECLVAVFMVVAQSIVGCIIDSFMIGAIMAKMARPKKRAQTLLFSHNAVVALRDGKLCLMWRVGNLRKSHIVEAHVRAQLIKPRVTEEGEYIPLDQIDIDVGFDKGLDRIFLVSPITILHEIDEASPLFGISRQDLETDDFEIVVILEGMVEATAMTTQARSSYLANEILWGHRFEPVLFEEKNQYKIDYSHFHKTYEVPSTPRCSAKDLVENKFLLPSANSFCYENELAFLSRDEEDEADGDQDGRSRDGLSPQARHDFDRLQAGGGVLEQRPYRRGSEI
smiles,measurement,setting,value
COc1ccc(CNCc2ccc(Cl)cc2)cc1 [14a],IC50,[1]; [29],0.77 µM
COc1ccc(CNCc2cccc(Cl)c2)cc1 [14b],IC50,[1]; [29],1.06 µM
COc1ccc(CNCc2ccc(C(C)(C)C)cc2)cc1 [14d],IC50,[1]; [29],1.39 µM
COc1ccc(CNCc2ccccc2Cl)cc1 [14j],IC50,[1]; [29],13.9 µM
"COc1ccc(CNCc2cccc3ccccc23)cc1 [ML133, N-(4-methoxybenzyl)-1-(naphthalen-1-yl)methanamine]",activity at N-type calcium channels,[2],inactive
same,activity at L-type calcium channels,[3],inactive
same,Hill coefficient (NH) Kir1.1 N171D,[4],1.6
same,IC50,[4],83.6 µM
same,ancillary pharmacology in 68-assay radioligand binding panel,[5],clean ancillary pharmacology; also recorded: clean profile
same,IC50,[6],3.3 µM
same,effect on Kir2.1 currents,"[1]; 3 μM, pH 6.5, 20 minute incubation",no significant effect
same,time to complete inhibition of Kir2.1,"[1]; 3 μM, pH 8.5",≤ 5 min
same,wash out of compound effects,"[1]; 3 μM, pH 8.5",approximately 10 minutes
same,IC50,"[1]; IC50 Kir2.1, pH 6.5, whole cell",10 µM
same,IC50,"[1]; IC50 Kir2.1, pH 8.5, manual patch clamp",0.29 µM
same,Hill coefficient (NH) Kir2.1,[1]; pH 6.5,1.8
same,Hill coefficient (NH) Kir2.1,[1]; pH 7.4,1.7
same,Hill coefficient (NH) Kir2.1,[1]; pH 8.5,4.0
same,intrinsic clearance,[7],high intrinsic clearance
same,inhibition of C25 current,[8]; 30 μM,resistant
same,inhibition of C25 current,[8]; 100 μM,slightly inhibited
same,inhibition at 30 µM,[8]; [30],< 20%
same,inhibition at 100 µM,[8]; [30],~30%
same,IC50,[9],2.8 µM
same,IC50,[10]; IC50 C25 N172D,75 µM and 75.2 µM
same,Hill coefficient (NH) C25 N172D,[10],2.2
same,IC50,[11],2.6 µM
same,Hill coefficient (NH) Kir2.1 D172N,[12],1.3
same,IC50,"[12]; IC50 Kir2.1 D172N, pH 7.4",15 µM and 15.4 µM
same,IC50,[13],> 30 µM
same,intrinsic clearance,[14],high intrinsic clearance
same,protein bound,[15],> 99%
same,protein bound,[16],> 99%
same,Hill coefficient (NH) Kir2.1 D172N/I176C,[17],1.8
same,IC50,"[17]; IC50 Kir2.1 D172N/I176C, pH 7.4",45 µM and 43.6 µM
same,IC50,[18],76 µM
same,IC50,[19],5.8 µM
same,Hill coefficient (NH) C25 triple mutant,[19]; pH 7.4,1.1
same,IC50,"[20]; IC50 Kir1.1 (estimated), pH 8.5",85.5 µM
same,IC50,"[20]; IC50 Kir1.1, pH 7.4",> 300 µM
same,effect on Kir1.1 current,"[20]; pH 7.4, up to 300 μM",essentially insensitive; also recorded: not inhibited
same,IC50,[21],> 30 µM
same,Hill coefficient (NH) Kir1.1 N171D/C175I,[22],2.3
same,IC50,[22],64 µM
same,IC50,[23],33 µM and 32.9 µM
same,activity in MLPCN HTS assays not based on Kir2.1,[24],inactive in all but two of 213 MLPCN HTS assays
same,activity at hERG,[25],inactive
same,IC50,[26],4 µM
same,IC50,[27],0.13 µM
COc1ccc(CNCc2ccccc2C)cc1 [14e],IC50,[1]; [29],5.15 µM
"[Ba+2] [barium, reference compound]",inhibition of Kir1.1,[20]; 5 mM,completely inhibited
same,inhibition of Kir1.1 current,[20]; at the end of the recording,over 85%
COc1ccc(CNCc2ccc(Cl)cc2Cl)cc1 [13c],IC50,[1]; [29],3.89 µM
COc1ccc(CNCc2ccc(OC)cc2)cc1 [14g],IC50,"[1]; read-out: IC50 Kir2.1, pH 7.4, whole cell, compound applied extracellularly",35 µM

# — article PMC3177608 (ACS chemical biology, 2011)
